Source: publication PMC12775434, “Ultra-large virtual screening unveils potent agonists of the neuromodulatory orphan receptor GPR139” (Nature Communications, 2025)

Columns and labels:
[1] = biological target: T1, GPR139 (Homo sapiens, UniProt Q6DWJ6); test: Signaling pathway panel at GPR139 (Gi2, Gi3, GoA, Gq, G12, Ca2+, arrestin-3), HEK293A; format: cell-based; design: expressed in transfected cells; host or cells: HEK293A (transient, Lipofectamine 2000); conditions: for fold more potent than the R-enantiomer: across individual signaling pathways
T1 sequence (Q6DWJ6 1-353): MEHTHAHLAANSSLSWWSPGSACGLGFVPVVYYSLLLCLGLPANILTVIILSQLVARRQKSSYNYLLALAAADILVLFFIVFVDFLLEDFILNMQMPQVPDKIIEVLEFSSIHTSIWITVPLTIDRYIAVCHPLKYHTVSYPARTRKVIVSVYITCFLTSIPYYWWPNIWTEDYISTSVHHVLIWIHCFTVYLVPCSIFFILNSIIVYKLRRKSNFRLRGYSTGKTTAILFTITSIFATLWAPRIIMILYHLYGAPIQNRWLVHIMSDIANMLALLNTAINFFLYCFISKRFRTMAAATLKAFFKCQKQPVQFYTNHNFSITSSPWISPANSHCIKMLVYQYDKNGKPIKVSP
Description: We evaluated the signaling pathways activated by the potent agonist 1.1 and JNJ-63533054 compounds through GPR139. […] As all our screens of analogs were performed with racemic mixtures, we synthesized compound 1.1 as pure S- and R-enantiomer (1.1(S) and 1.1(R), respectively) along with JNJ-63533054 (JNJ(S)) and its R-enantiomer (JNJ(R)). Detailed synthetic procedures are described in the Supplementary Methods. We then characterized these four compounds in assays measuring the activation of Gi2, Gi3, GoA, Gq, and G12 proteins, intracellular calcium mobilization, and arrestin-3 recruitment. G protein activation was measured using a BRET-based Gα-specific G protein dissociation assay[57] and arrestin-3 recruitment was measured with an enhanced bystander BRET assay[58] (Fig. 5a).
HEK293A cells were reverse-transfected with human GPR139 for Ca^2+ mobilization experiments with transiently expressed GPR139. The construct has been generated and described previously by Nøhr et al.. DNA and Lipofectamine 2000 Transfection Reagent (ThermoFisher #11668019) were separately diluted in Opti-MEM I Reduced Serum Medium (ThermoFisher #31985070). 10 ng GPR139 DNA and 250 nL Lipofectamine were used for each well. The dilutions were incubated at room temperature for 5 min. Then, DNA and Lipofectamine dilutions were combined in 1:1 volumetric ratio and incubated at room temperature for 20 min to obtain the transfection solutions. 10 µL transfection solution and 20,000 cells in 100 µL growth medium were distributed in each well of black clear bottom tissue culture treated 96-well plates that were previously coated with poly-D-lysine (Sigma-Aldrich #P0899). Cells were grown for approximately 48 h. A calcium mobilization assay was performed as described.
The G protein dissociation assay developed by the lab of Kirill A. Martemyanov was used to measure the coupling of multiple G proteins by GPR139[57]. The assay was performed as described previously with minor modifications. […] Simultaneous dual emission was measured at 535 nm and 475 nm on LUMIstar Omega Microplate Reader (BMG Labtech) at room temperature. […]

[2] = Metabolic stability in the presence of mouse liver microsomes; format: in vitro ADME; conditions: pH 7.4, read-out: intrinsic clearance, CLint
Description: Metabolic stability was determined in 0.5 mg/ml mouse liver microsomes at a compound concentration of 1 μM in 100 mM KPO4 buffer, pH 7.4, in a total incubation volume of 500 μl. The reaction was initiated by addition of 1 mM NADPH. At various incubation times, i.e., at 0, 5, 10, 20, 40, and 60 min, a sample was withdrawn from the incubation, and the reaction was terminated by addition of cold acetonitrile with warfarin as an internal standard. The amount of parent compound remaining was analyzed by LC-MS/MS[70].

fold more potent than the R-enantiomer [1]	microsomal CLint at 1 μM [2] [µL/min/mg]	EC50 ([1]; range over pathways, read-out: EC50 for stimulating the individual signaling pathways at GPR139) [nM]	SMILES
40- to 158 fold			CC(NC(=O)CNC(=O)c1cccc(Cl)c1)c1ccccc1 (centres unmarked) [JNJ-63533054, reference compound]
13- to 63 fold	1370	13 to 200	Cc1cscc1-c1nc(CC(=O)N[C@@H](C)c2ccccc2)no1 [1.1(S)]
	46		Cc1nocc1-c1nc(CC(=O)NC(C)c2ccccc2)no1 (centres unmarked) [Compound 1.5, CC(C1=CC=CC=C1)NC(CC2=NOC(C3=CON=C3C)=N2)=O]
